target: T1, NA transporter (Rattus norvegicus, UniProt Q63380); assay: Noradrenaline (NA) uptake inhibition in rat brain synaptosomes (hypothalamus), [3H]-NA; format: biochemical; details: not given
T1 construct: from tissue; host or cells: rat hypothalamus synaptosomes (P2 fraction)
Description: I. Method for Determining the Noradrenaline and 5HT Uptake Inhibition:
For in vitro studies, synaptosomes were freshly isolated from rat brain areas as described in the publication “The isolation of nerve endings from brain” by E. G. Gray and V. P. Whittaker, J. Anatomy 96, pages 79-88, 1962. The corresponding literature description is introduced hereby as reference and forms part of the disclosure.
The tissue (hypothalamus for determining the noradrenaline uptake inhibition and medulla and pons for determining the 5HT uptake inhibition) was homogenized in ice-cold 0.32 M sucrose (100 mg of tissue/1 ml) in a glass homogenizer with Teflon pestle using five full up and down strokes at 840 revolutions/minute. The homogenate was centrifuged at 1000 g and at 4° C. for 10 minutes. After subsequent centrifugation at 17 000 g for 55 minutes, the synaptosomes (P2 fraction) are obtained and were resuspended in 0.32 M […] (0.5 ml/100 mg of the original weight).
The respective uptake was measured in a 96-well microtiter plate. The volume was 250 μl and incubation took place at room temperature (approx. 20-25° C.) under an O2 atmosphere.
The incubation time was 7.5 minutes for [^3H]-NA and 5 minutes for [^3H]-5-HT. The 96 samples were then filtered through a Unifilter GF/B® microtiter plate (Packard) and washed with […] of incubated buffer using a “Brabdel MPXRI-96T Cell Harvester”. The Unifilter GF/B plate was dried at 55° C. for 1 h. The plate was then sealed with a Back Seal® (Packard) and 35 μl of scintillation fluid were added per well (Ultima Gold®, Packard). After sealing with a top Seal® (Packard), the radioactivity was determined, after equilibrium had been reached (about 5 h), in a “Trilux 1450 Microbeta” (Wallac).
The following characteristic data were found for the NA transporter:
The amount of protein employed in the above determination corresponded to the value disclosed in the literature, as described for example in “Protein measurement with the folin phenol reagent”, Lowry et al., J. Biol. Chem., 193, 265-275, 1951. A detailed description of the method can also be found in the literature, for example from M. Ch. Frink, H.-H. Hennies, W. Engelberger, M. Haurand and B. Wilffert (1996) Arzneim.-Forsch./Drug Res. 46 (III), 11, 1029-1036. The corresponding literature descriptions are hereby introduced as reference and form part of the disclosure.

T1 sequence (Q63380 1-617): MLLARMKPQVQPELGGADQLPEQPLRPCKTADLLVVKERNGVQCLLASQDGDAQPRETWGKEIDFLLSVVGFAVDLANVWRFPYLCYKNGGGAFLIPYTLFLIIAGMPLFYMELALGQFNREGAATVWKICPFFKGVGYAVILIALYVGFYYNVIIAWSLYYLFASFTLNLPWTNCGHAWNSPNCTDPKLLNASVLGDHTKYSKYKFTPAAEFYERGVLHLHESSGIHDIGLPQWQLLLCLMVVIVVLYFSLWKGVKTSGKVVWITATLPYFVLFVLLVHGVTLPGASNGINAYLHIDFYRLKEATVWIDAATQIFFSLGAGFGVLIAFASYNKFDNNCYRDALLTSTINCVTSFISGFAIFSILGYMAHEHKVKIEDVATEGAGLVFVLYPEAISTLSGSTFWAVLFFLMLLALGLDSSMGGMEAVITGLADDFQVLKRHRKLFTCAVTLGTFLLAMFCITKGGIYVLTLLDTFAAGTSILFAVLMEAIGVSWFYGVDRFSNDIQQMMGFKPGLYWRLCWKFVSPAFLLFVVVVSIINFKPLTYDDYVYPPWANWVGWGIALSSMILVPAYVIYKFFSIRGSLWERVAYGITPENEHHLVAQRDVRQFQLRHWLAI

Compound	NA uptake inhibition [%] conc. 10 μM [%]
Nc1cccc2onc(NC(=O)c3cccc4ccccc34)c12 [Example 11, naphthalene-1-(4-aminobenzo[d]isoxazol-3-yl)carboxamide]	71
O=C(Nc1noc2cccc(F)c12)c1cc2ccccc2s1 [Example 12, benzo[b]thiophene-2-(4-fluorobenzo[d]isoxazol-3-yl)carboxamide]	60
O=C(Nc1noc2c(F)cccc12)c1ccc2ccccc2c1 [Example 57, naphthalene-2-(7-fluorobenzo[d]isoxazol-3-yl)carboxamide]	67
CCCc1ccc(C(=O)Nc2noc3cccc(F)c23)cc1 [Example 58, N-(74-fluorobenzo[d]isoxazol-3-yl)-4-propylbenzamide]	64
O=C(Nc1noc2c(F)cccc12)c1ccco1 [Example 63, furan-2-(7-fluorobenzo[d]isoxazol-3-yl)carboxamide]	64
CN(C)c1cccc2onc(NC(=O)c3ccc4ccccc4c3)c12 [Example 67, naphthalene-2-(4-dimethylaminobenzo[d]isoxazol-3-yl)carboxamide]	73

More lines, now with the values ahead:

NA uptake inhibition [%] conc. 10 μM [%]	Compound
62	O=C(Nc1noc2ccc(Br)cc12)C1CC1 [Example 8, cyclopropane(5-bromobenzo[d]isoxazol-3-yl)carboxamide]
61	O=C(Nc1noc2cc(Cl)ccc12)c1ccc2ccccc2c1 [Example 41, naphthalene-2-(6-chlorobenzo[d]isoxazol-3-yl)carboxamide]
66	O=C(Nc1noc2ccc(Br)cc12)c1ccco1 [Example 50, furan-2-(5-bromobenzo[d]isoxazol-3-yl)carboxamide]

same assay, conditions: conc. 10 μM

Compound	inhibition at 10 µM [%]
O=C(Nc1noc2cc(Cl)ccc12)c1ccc(F)c(F)c1 [Example 42, N-(6-chlorobenzo[d]isoxazol-3-yl)-3,4-difluorobenzamide]	64
O=C(Nc1noc2cc(Br)ccc12)c1ccc(F)cc1C(F)(F)F [Example 43, N-(6-bromobenzo[d]isoxazol-3-yl)-4-fluoro-2-trifluoromethylbenzamide]	66
O=C(Nc1noc2cc(Br)ccc12)c1cc(F)cc(C(F)(F)F)c1 [Example 46, N-(6-bromobenzo[d]isoxazol-3-yl)-3-fluoro-5-trifluoromethylbenzamide]	65
O=C(Nc1noc2cc(Br)ccc12)c1ccc(F)c(F)c1F [Example 47, N-(6-bromobenzo[d]isoxazol-3-yl)-2,3,4-trifluorobenzamide]	66
CCCc1ccc(C(=O)Nc2noc3cc(Br)ccc23)cc1 [Example 48, N-(6-bromobenzo[d]isoxazol-3-yl)-4-propylbenzamide]	61
O=C(Nc1noc2c(F)cccc12)c1ccc(C(F)(F)F)c(F)c1 [Example 53, 3-fluoro-N-(7-fluorobenzo[d]isoxazol-3-yl)-4-trifluoromethylbenzamide]	69
O=C(Nc1noc2c(F)cccc12)c1ccc(I)cc1 [Example 55, N-(7-fluorobenzo[d]isoxazol-3-yl)-4-iodobenzamide]	69
O=C(Nc1noc2c(F)cccc12)c1ccc(F)c(F)c1 [Example 59, 3,4-difluoro-N-(7-fluorobenzo[d]isoxazol-3-yl)benzamide]	67
O=C(Nc1noc2c(F)cccc12)C(c1ccccc1)c1ccccc1 [Example 62, N-(7-fluorobenzo[d]isoxazol-3-yl)-2,2-diphenylacetamide]	63
CN(C)c1cccc2onc(NC(=O)c3ccc(F)c(F)c3F)c12 [Example 65, N-(4-dimethylaminobenzo[d]isoxazol-3-yl)-2,3,4-trifluorobenzamide]	68
CN(C)c1cccc2onc(NC(=O)c3cccc(C(F)(F)F)c3F)c12 [Example 70, N-(4-dimethylaminobenzo[d]isoxazol-3-yl)-2-fluoro-3-trifluoromethylbenzamide]	66
COc1cccc(C(=O)Nc2noc3cccc(N(C)C)c23)c1 [Example 71, N-(4-dimethylaminobenzo[d]isoxazol-3-yl)-3-methoxybenzamide]	65
CN(C)c1cccc2onc(NC(=O)C(C)(C)C)c12 [Example 72, N-(4-dimethylaminobenzo[d]isoxazol-3-yl)-2,2-dimethylpropionamide]	66
CN(C)c1cccc2onc(NC(=O)C(F)(F)C(F)(F)C(F)(F)F)c12 [Example 76, N-(4-dimethylaminobenzo[d]isoxazol-3-yl)-2,2,3,3,4,4,4-heptafluorobutyramide]	67
O=C(Nc1noc2cccc(OCC(F)(F)F)c12)c1cc(F)c(Cl)cc1Cl [Example 78, 2,4-dichloro-5-fluoro-N-[4-(2,2,2-trifluoroethoxy)benzo[d]isoxazol-3-yl]benzamide]	66
O=C(Nc1noc2cccc(OCC(F)(F)F)c12)c1ccc(C(F)(F)F)c(F)c1 [Example 79, 3-fluoro-N-[4-(2,2,2-trifluoroethoxy)benzo[d]isoxazol-3-yl]-4-trifluoromethyl-benzamide]	62

Next, values leading:

inhibition at 10 µM [%]	Compound
63	COc1cccc2onc(NC(=O)C(c3ccccc3)c3ccccc3)c12 [Example 7, N-(4-methoxybenzo[d]isoxazol-3-yl)-2,2-diphenylacetamide]
67	O=C(Nc1noc2cc(F)ccc12)c1cc(Cl)cc(Cl)c1 [Example 9, 3,5-dichloro-N-(6-fluorobenzo[d]isoxazol-3-yl)benzamide]
66	Nc1cccc2onc(NC(=O)c3ccc([N+](=O)[O-])cc3)c12 [Example 10, N-(4-aminobenzo[d]isoxazol-3-yl)-4-nitrobenzamide]
61	O=C(Nc1noc2cc(Cl)ccc12)c1ccc(I)cc1 [Example 40, N-(6-chlorobenzo[d]isoxazol-3-yl)-4-iodobenzamide]
61	O=C(Nc1noc2cc(Br)ccc12)c1cc(F)c(Cl)cc1Cl [Example 44, 2,4-dichloro-N-(6-bromobenzo[d]isoxazol-3-yl)-5-fluorobenzamide]
64	O=C(Nc1noc2cc(Br)ccc12)c1ccc(C(F)(F)F)c(F)c1 [Example 45, N-(6-bromobenzo[d]isoxazol-3-yl)-3-fluoro-4-trifluoromethylbenzamide]
71	O=C(Nc1noc2c(F)ccc(F)c12)c1ccccc1C(F)(F)F [Example 51, 7-fluoro-N-(4-fluorobenzo[d]isoxazol-3-yl)-2-trifluoromethylbenzamide]
70	O=C(Nc1noc2c(F)cccc12)c1cc(F)c(Cl)cc1Cl [Example 52, 2,4-dichloro-5-fluoro-N-(7-fluorobenzo[d]isoxazol-3-yl)benzamide]
63	O=C(Nc1noc2c(F)cccc12)c1ccc(F)c(F)c1F [Example 54, 2,3,4-trifluoro-N-(7-fluorobenzo[d]isoxazol-3-yl)benzamide]
72	O=C(Nc1noc2c(F)cccc12)c1cccnc1Cl [Example 56, 2-chloro-N-(7-fluorobenzo[d]isoxazol-3-yl)nicotinamide]
66	O=C(Nc1noc2c(F)cccc12)c1cccc(C(F)(F)F)c1F [Example 60, 2-fluoro-N-(7-fluorobenzo[d]isoxazol-3-yl)-3-trifluoromethylbenzamide]
66	COc1cccc(C(=O)Nc2noc3c(F)cccc23)c1 [Example 61, N-(7-fluorobenzo[d]isoxazol-3-yl)-3-methoxybenzamide]
63	CN(C)c1cccc2onc(NC(=O)c3cc(F)c(Cl)cc3Cl)c12 [Example 64, 2,4-dichloro-N-(4-dimethylaminobenzo[d]isoxazol-3-yl)-5-fluorobenzamide]
64	CN(C)c1cccc2onc(NC(=O)c3cccnc3Cl)c12 [Example 66, 2-chloro-N-(4-dimethylaminobenzo[d]isoxazol-3-yl)nicotinamide]
73	CCCc1ccc(C(=O)Nc2noc3cccc(N(C)C)c23)cc1 [Example 68, N-(4-dimethylaminobenzo[d]isoxazol-3-yl)-4-propylbenzamide]
67	CN(C)c1cccc2onc(NC(=O)c3ccc(F)c(F)c3)c12 [Example 69, N-(4-dimethylaminobenzo[d]isoxazol-3-yl)-3,4-difluorobenzamide]
70	CN(C)c1cccc2onc(NC(=O)C(c3ccccc3)c3ccccc3)c12 [Example 74, N-(4-dimethylaminobenzo[d]isoxazol-3-yl)-2,2-diphenylacetamide]

— patent publication US20080312301A1, “Substituted N-Benzo[D]Isoxazol-3-Yl-Amine Compounds as Inhibitors of Mglur5, Serotonin (5-Ht) and Noradrenaline Receptors, and Uses Thereof” (Gruenenthal GmbH, priority 2005, published 2008)
